Patent US20050049202A1, “Benzoic acid derivatives and uses thereof” (priority 2000, published 2005)

What was measured:
[1] = tested on: THP-1 clone No. 53 (containing pGL2-Control); test: Luciferase reporter gene assay, control clone No. 53; assay type: cell-based; conditions: control clone 53
Source text: (§1) One method for identifying a the ability of a compound of the present invention to induce mRNA degradation, comprises i) contacting the compound with a DNA expression system which in the absence of the compound is capable of expressing a protein having a detectable signal, wherein the mRNA which codes for the protein and which is transcribed from the expression system comprises at least one copy of a mRNA instability sequence; ii) measuring the detectable signal in the presence of the test compound and comparing the result obtained with a control. A related method can be used to compare compounds which induce mRNA degradation. This method comprises separately contacting the compounds with a DNA expression system which in the absence of the compounds is capable of expressing a protein having a detectable signal, wherein the mRNA which codes for the protein and which is transcribed from the expression system comprises at least one copy of a mRNA instability sequence, measuring the detectable signal in the presence of each test compound and comparing the signals obtained.
(§2) The THP-1 cell lines, clone No. 63 (containing PGL2_Neo30) and clone No. 53 (containing pGL2-Control) are grown, differentiated and stimulated with IFN-γ and LPS identical to normal THP-1 cells (for details see WO 00/39314). Compound is added 16 hrs after the addition of LPS and cell extracts are then taken 8 hrs later or as indicated. Luciferase activity was inhibited by 1 μM benzoic acid derivative on average by 40%, whereas up to 5 μM of benzoic acid derivative had no effects on the control clone No. 53.

[2] = tested on: THP-1 clone No. 63 (containing PGL2_Neo30); test: Luciferase reporter gene assay for compounds which destabilize mRNA, clone No. 63; assay type: cell-based; conditions: clone 63
Source text: as §1, §2

With `COc1cccc(C)c1C(=O)OC[C@@H]1C=CC(=O)O1` the “Luciferase reporter gene assay (% control)” value ([1]; 0.5 μM) was 89 % control, the “Luciferase reporter gene assay (% control)” value ([1]; 1 μM) was 93 % control and the “Luciferase reporter gene assay (% control)” value ([1]; 5 μM) was 99 % control. The “Luciferase reporter gene assay (% control)” value ([2]; 0.5 μM) was 85 % control, the “Luciferase reporter gene assay (% control)” value ([2]; 1 μM) was 79 % control and the “Luciferase reporter gene assay (% control)” value ([2]; 5 μM) was 29 % control.
